Data from PubChem BioAssay AID2305 (GlaxoSmithKline (GSK), 2010).

Test system: P. falciparum 3D7 growth, pLDH absorbance
Test: blood-stage malaria parasite growth potency – strain 3D7, dose response (AID 2305)

SMILES | IC50 [nM]
COc1ccc2ncc(F)c(NC(=O)C3CCC(NCc4cc5c(F)cccc5[nH]4)CC3)c2n1 (centres undefined) | 1090
Cc1cccn2c(=O)c3cc(C(=O)NC(C)c4ccccc4)c(=N)n(CCc4ccccc4)c3nc12 (centres undefined) | 550
O=C1C2=C(Nc3ccccc3SC2c2cccs2)c2ccccc21 (centres undefined) | 230
CC(=O)Nc1ccc(CN(Cc2ccc(F)cc2)Cc2ccc3c(c2)OCO3)cc1 | 940
COc1ccc(C(C(=O)NC2CCN(C[C@H](O)c3ccnc4ccc(OC)cc34)CC2)N2CCN(Cc3ccccc3)CC2)cc1 (some centres undefined) | 150
Cc1ccccc1C1CCN(C2CCC(NC(=O)/C=C/c3cccc(Cl)c3Cl)CC2)CC1 (centres undefined) | 1030
COc1ccc2oc(=O)c(C#N)c(O)c2c1 | 210
CC(C)(C)c1ccc(NC(=O)c2cccc(CN3CCCN(CC4CCCCC4)CC3)c2)cc1 | 740
O=C(Nc1cccc(-c2ccc(-c3nc4ccccc4[nH]3)cc2)c1)Nc1ccc(F)c(F)c1F | 240
Cc1ccc(NC(=O)c2ccc(CN3CCCN(Cc4cccc(C#N)c4)CC3)cc2)cc1F | 590
C=C(F)c1sc(CNCCCNc2nc3ccccc3[nH]2)c(C)c1Br | 370
CCOC(=O)NC1=NC(C)(C)N(OCc2ccc(Cl)c(Cl)c2)C(NC(=O)OCC)=N1 | 280
CCOc1cc(C=Cc2nc3ccccc3c(=O)[nH]2)cc(Cl)c1O | 1180
CC(C)NCc1ccc(-c2ccc(NC(=O)c3ccc(Cl)cc3)cc2)cc1 | 910
CC[C@@]1(O)C(=O)OCc2c1cc1n(c2=O)Cc2c-1nc1cc3c(cc1c2CN1CCN(C)CC1)OCCO3 | 450
CC(C)C1C(O)=C(c2ccc3ccccc3c2)C(=O)N1Cc1ccsc1 (centres undefined) | 1070
NC(N)=Nc1ccc(OCCCCCOc2ccc(N=C(N)N)cc2)cc1 | 190
O=C(Nc1cccc(F)c1)NC1CCN(CCCCCNC(=O)[C@@H]2C[C@H]2c2ccc(Cl)c(Cl)c2)CC1 | 760
CC(C)(C)CC(C)(C)c1ccc(O)c(C(=O)Nc2ccc([N+](=O)[O-])cc2)c1 | 770
CC1(C)N=C(N)N=C(N)N1OCCCO | 220
O=C(/C=C/c1ccc(Cl)c(Cl)c1)NCCCCCN1CCC(c2cn[nH]c2-c2ccccc2)CC1 | 1220
Cc1ccc(C=C2SC(=Nc3ccccc3)NC2=O)c(C)c1 | 560
Cc1cc2c(cc1C(F)(F)F)N(C(=O)Nc1cc(OCCN(C(C)C)C(C)C)cc(C(F)(F)F)c1)CC2 | 260
Cc1ccc(C(c2nnnn2C2CCCC2)N(Cc2ccco2)Cc2ccccc2Cl)cc1 (centres undefined) | 960
COc1ccc(Nc2nc(N)c3cc(OC)c(OC)cc3n2)cc1OC | 730

SMILES | IC50 [nM]
CCOc1c(Br)cc(Cl)cc1CNCCCNc1nc2ccccc2[nH]1 | 690
Cc1nc(-c2ccc(C(F)(F)F)cn2)sc1C(=O)N1CCc2cc3nccc(N4CCN5CCC[C@H]5C4)c3cc21 | 780
COc1ccc(C=Cc2cc(N)c3ccccc3n2)cc1Br | 710
O=C(/C=C/c1ccc([N+](=O)[O-])cc1)N1CCC(NS(=O)(=O)c2cccc(C(F)(F)F)c2)CC1 | 850
Cc1ccccc1C1CCN(C2CCC(NC(=O)c3ccc(-c4cccs4)s3)CC2)CC1 (centres undefined) | 1030
CCOc1ccc(-c2nonc2NC(=O)c2ccc(Cl)cc2)cc1OCC | 990
Cc1c(C)n(C2CCCCC2)c2ncnc(OC3CCN(CC(=O)NC4CC4)CC3)c12 | 1240
Clc1ccc(Nc2nc(Nc3ccc(Cl)c(Cl)c3)nc(Sc3nc4ccccc4[nH]3)n2)cc1Cl | 490
CCc1c(C)nc(-n2nc(C)cc2NC(=O)c2cccc3ccccc23)[nH]c1=O | 680
COc1cccc(C(=O)Nc2ccc(Nc3nc(C)cc(N(C)C)n3)cc2)c1OC | 1020
CCCC(=O)Nc1ccc(OCCCN(Cc2ccccc2OC(F)(F)F)c2ccc(C#N)c(C(F)(F)F)c2)cc1 | 600
CCc1cn2c3c(cc(C(=O)N[C@@H](Cc4cccc(F)c4)[C@H](O)CNC4CCCCC4)cc13)N(C)S(=O)(=O)CC2 | 30
NCCCCNc1cc(-c2ccnc(Nc3cccc(Cl)c3)n2)ccn1 | 280
CC(=O)N/N=C/[C@H](CCc1ccccc1)NC(=O)[C@H](CC(C)C)NC(=O)c1ccc(F)cc1 | 690
Cc1nc(N2CCC(C)CC2)c2c3c(sc2n1)CCCC3 | 1060
CC(=O)N(Cc1ccccc1-c1cccc(CNCCc2ccccc2)c1)C1CCN(Cc2ccccc2)CC1 | 1100
COc1cccc(-c2cc(C(=O)Nc3cc(Oc4ccc(O)cc4)cc([N+](=O)[O-])c3)on2)c1 | 1050
COc1ccc(CNCCc2cccs2)cc1-c1ccc(OC)c(S(=O)(=O)NCCN2CCCC2)c1 | 1410
Oc1c(C(Nc2nc3ccccc3s2)c2ccc(OC(F)F)cc2)ccc2cccnc12 (centres undefined) | 570
CN(C)CCCN1CCN(Cc2ccc(-c3ccc(-c4nc5ccccc5[nH]4)s3)cc2)CC1 | 820
Fc1cc(Cl)ccc1Nc1ccnc(Nc2ccc3cn[nH]c3c2)n1 | 740
Oc1ccc(CN2CCN(CCOC(c3ccc(F)cc3)c3ccc(F)cc3)CC2)cc1Cl | 940
Oc1ccccc1CN[C@@H]1CCCC[C@H]1NCc1ccccc1O | 950
CC(CN1CCN(C)CC1)C(=O)Nc1ccc(-c2ccc(-c3nc4ccccc4[nH]3)cc2)cc1 (centres undefined) | 950
c1ccc(Oc2ccc(Nc3ccnc4cc(-c5ccc(CNCCN6CCOCC6)o5)ccc34)cc2)nc1 | 1440

SMILES | IC50 [nM]
CON=Cc1sc(CNCCCNc2cc(=O)c3ccccc3[nH]2)c(C)c1Br | 960
NC(=O)COc1c(C2CCN(CCCCNC(=O)c3ccc(-c4ccc(Cl)cc4)c(O)c3)CC2)ccc2c1CCCC2 | 710
Cc1cccc2[nH]c(-c3cccc(-c4ccc(NC(=O)COc5ccccc5C(N)=O)cc4)c3)nc12 | 890
Cc1ccc(CNC(=O)[C@H](Cc2ccccc2)Nc2cc(C)nc(NCC3CCCCC3)n2)cc1 | 900
O=c1ccc(CNc2nc(NCCc3ccccc3)nc3ccc(Cl)cc23)c[nH]1 | 780
Cc1cccc2[nH]c(-c3ccc(-c4cccc(CN5CCN(c6ccncc6)CC5)c4)cc3)nc12 | 120
CCC[C@@H]([C@@H](CC1CCCCC1)C(=O)N[C@H](C(=O)Nc1nccs1)C(C)(C)SCCNC(=O)OCc1ccccn1)N(O)C=O | 160
COc1ccc(NC(=O)[C@H](Cc2ccccc2)Nc2cc(C)nc(NCCc3ccc(F)cc3)n2)cc1 | 1120
CCCN(CC1CC1)c1ncc(-c2cccc(CNCc3ccccc3O)c2)cn1 | 700
CS(=O)(=O)N1CC2(CCN(CCC(NC(=O)Nc3ccccc3)c3ccc(Cl)c(Cl)c3)CC2)c2ccccc21 (centres undefined) | 820
CS(=O)(=O)CCN(CCS(C)(=O)=O)Cc1ccc(-c2ccc3ncnc(Nc4ccc(OCc5cccc(F)c5)c(Cl)c4)c3c2)o1 | 1020
CN(C)c1cc2c(Nc3ccc4nc(Cc5ccccc5)[nH]c4c3)ncnc2cn1 | 1140
NC(N)=NC(=O)Nc1cc(Cl)c(Cl)c(Cl)c1 | 590
O=c1ccc2ccc(F)cc2n1CCN1CCC(NCc2ccc(-c3ccccn3)s2)CC1 | 890
O=C(O)C1Cc2c([nH]c3ccccc23)C(c2ccc(Cl)cc2Cl)N1 (centres undefined) | 950
COc1ccc2c(c1)nc(CN=C(N)N)n2Cc1ccc(Cl)cc1 | 360
Cc1ccc2sc(N(CCCn3ccnc3)C(=O)c3ccco3)nc2c1C | 970
CC(Cc1ccc([N+](=O)[O-])cc1)NCC(O)c1cccc(C(F)(F)F)c1 (centres undefined) | 900
CC(=O)c1c(CC(=O)O)c2ccccc2n1O | 740
CC(=O)Nc1ccc(C(=O)Nc2cccc(-c3cccc(-c4nc5ccc(C(F)(F)F)cc5[nH]4)c3)c2)cn1 | 70
O=C(CC1NC(=O)c2ccccc21)Nc1ccc(-c2cccc(-c3nc4ccc(C(F)(F)F)cc4[nH]3)c2)cc1 (centres undefined) | 960
CC[C@H](C)CNC(=O)c1cncc(-c2ccc(CNC3CCCC3)cc2)c1 | 1120
O=C(/C=C/c1ccc(Cl)c(Cl)c1)N1CCC(C(O)CN2CCC(c3c[nH]c4ccccc34)CC2)CC1 (centres undefined) | 860
Oc1[nH]c2ccccc2c1N=NC(=S)N1CCOCC1 | 910
CN1CCN(c2cc(-c3cccnc3)nc(-c3ccncc3)n2)CC1 | 550

SMILES | IC50 [nM]
CCOc1c(CNCCCNc2cc(=O)c3ccccc3[nH]2)cc(I)cc1OC | 1170
O=C(NCC1CCN(CC2CCCCC2)C1)c1cc(-c2cccc(Cl)c2)cs1 (centres undefined) | 1090
O=C(/C=C/c1ccc(Cl)c(Cl)c1)NCCCCCN1CCCN(C(=O)Nc2ccc(Cl)cc2)CC1 | 740
CN1CCN(C(=O)CN2CCC3(CCC2=O)NC(=O)c2ccccc2O3)CC1 (centres undefined) | 210
Cc1ccc(C)c(NC(=O)CC2C(=O)N(c3ccccc3)C(=S)N2Cc2ccco2)c1 (centres undefined) | 570
CCN(CCCN1CCCCC1)c1cc(C)nc(Nc2ccc(C(C)C)cc2)n1 | 540
COc1cc2nc(C)nc(Nc3ccc4c(ccn4Cc4ccccc4)c3)c2cc1OC | 560
CCOc1cc(C)ccc1C1CCN(CCCCNC(=O)c2nc(-c3ccc(C(F)(F)F)cc3)[nH]c2C)CC1 | 730
O=C(c1cc2c(s1)-c1cccc(Cl)c1SC2)N1CCN(c2ccncc2)CC1 | 1010
Cc1cccc(C)c1OC(=O)CSc1nnc(-c2ccccc2O)o1 | 880
Cc1cnc(C(=O)Nc2cccc(-c3cccc(-c4nc5ccc(F)cc5[nH]4)c3)c2)cn1 | 770
Cc1cccc2[nH]c(-c3ccc(-c4ccc(CNCCCNS(C)(=O)=O)cc4)s3)nc12 | 1000
COc1ccccc1CN1CCC(NC(=O)c2ccc(-c3ccc(N(C)C)cc3)s2)CC1 | 960
c1cc(-c2ccc(CN3CCN(c4ccncc4)CC3)cc2)cc(-c2nc3ccccc3[nH]2)c1 | 140
COc1ccc2ncc(F)c(CCN3[C@@H]4CC[C@H]3CC(NCc3ccc5c(c3)OCCO5)C4)c2n1 (some centres undefined) | 230
CC(=O)Nc1ccc(CN2Cc3ccc(NC(=O)Nc4ccc(Oc5ccccc5)cc4)cc3C2)s1 | 920
CN1CCN(CCCN(Cc2cccc(-c3ccc(CNCc4ccc5c(c4)OCO5)cc3)c2)C(=O)CCC2CCCC2)CC1 | 1000
Fc1ccc(CNc2ccc3ncc(-c4cccnc4)n3n2)cc1 | 930
CCOc1ccc(Br)cc1/C=C/C(=O)Nc1ccc(C2CCN(C)CC2)cc1 | 450
Cc1cccc2[nH]c(-c3cccc(-c4ccc(NC(=O)CS(C)(=O)=O)cc4)c3)nc12 | 1000
Cc1cccc2[nH]c(-c3ccc(-c4ccc(CNCCc5ccncc5)cc4)cc3)nc12 | 210
CC(Oc1cccc(Cl)c1)C(=O)N1CCc2ccccc21 (centres undefined) | 510
Cc1nc2ccc3nc(NC(=O)c4ccno4)sc3c2s1 | 660
COC(=O)c1ccc(CC(C)NCC(O)c2ccccc2Cl)cc1 (centres undefined) | 1010
